From a compilation of properties of binary mixtures (doi:10.1016/j.molliq.2008.06.014)

Assay: xn = mol fraction of the nth substance listed
Conditions: 101 kPa

CN(C)CCO + CCCC[n+]1ccn(C)c1.F[P-](F)(F)(F)(F)F
Conditions	electrical conductivity [S/m]	viscosity [mPa·s]
288.15 K, x1 = 0.1221	0.12	213
288.15 K, x1 = 0.2143	0.14	159
288.15 K, x1 = 0.4405	–	81
288.15 K, x1 = 0.4637	0.179	–
288.15 K, x1 = 0.605	0.206	46
288.15 K, x1 = 0.9128	0.135	9.5
288.15 K, x1 = 1	0.082	5
293.15 K, x1 = 0.1221	0.161	157
293.15 K, x1 = 0.3182	0.203	88
293.15 K, x1 = 0.3764	0.226	–
293.15 K, x1 = 0.605	0.264	35
293.15 K, x1 = 0.709	0.266	23
293.15 K, x1 = 0.9128	0.16	8
293.15 K, x1 = 1	0.091	4.3
298.15 K, x1 = 0.2143	0.242	88
298.15 K, x1 = 0.3182	0.263	66
298.15 K, x1 = 0.3764	0.285	–
298.15 K, x1 = 0.4405	–	46
298.15 K, x1 = 0.5166	0.322	36
298.15 K, x1 = 0.605	0.333	27
298.15 K, x1 = 0.709	0.332	18.2
298.15 K, x1 = 0.8063	0.297	11.8
303.15 K, x1 = 0.1221	0.272	88
303.15 K, x1 = 0.2143	0.311	68
303.15 K, x1 = 0.3182	0.341	51
303.15 K, x1 = 0.4637	0.389	–
303.15 K, x1 = 0.5166	0.403	28
303.15 K, x1 = 0.605	0.414	21.4
303.15 K, x1 = 0.709	0.404	14.7
303.15 K, x1 = 0.9128	0.218	5.6
303.15 K, x1 = 1	0.11	3.2
308.15 K, x1 = 0.1221	0.348	67
308.15 K, x1 = 0.2143	0.396	52
308.15 K, x1 = 0.3182	0.431	39
308.15 K, x1 = 0.3764	0.461	–
308.15 K, x1 = 0.5166	0.502	22.4
308.15 K, x1 = 0.605	0.51	17
308.15 K, x1 = 0.709	0.49	11.9
308.15 K, x1 = 0.8063	0.423	8
308.15 K, x1 = 0.9128	0.252	4.8
308.15 K, x1 = 1	0.12	2.9
313.15 K, x1 = 0.1221	0.434	53
313.15 K, x1 = 0.2143	0.491	41
313.15 K, x1 = 0.3182	0.531	31
313.15 K, x1 = 0.3764	0.564	–
313.15 K, x1 = 0.4405	–	22.6
313.15 K, x1 = 0.4637	0.589	–
313.15 K, x1 = 0.5166	0.606	18.1
313.15 K, x1 = 0.709	0.583	9.8
313.15 K, x1 = 0.8063	0.494	6.7
313.15 K, x1 = 0.9128	0.288	4.1
313.15 K, x1 = 1	0.131	2.5
318.15 K, x1 = 0.1221	0.531	42
318.15 K, x1 = 0.2143	0.599	33
318.15 K, x1 = 0.3182	0.648	25
318.15 K, x1 = 0.4405	–	18.6
318.15 K, x1 = 0.4637	0.713	–
318.15 K, x1 = 0.5166	0.727	14.9
318.15 K, x1 = 0.605	0.726	11.6
318.15 K, x1 = 0.709	0.682	8.3
318.15 K, x1 = 0.8063	0.571	5.7
318.15 K, x1 = 0.9128	0.326	3.6
318.15 K, x1 = 1	0.141	2.27
323.15 K, x1 = 0.1221	0.63	35
323.15 K, x1 = 0.2143	0.712	28
323.15 K, x1 = 0.3182	0.767	21.2
323.15 K, x1 = 0.4405	–	15.7
323.15 K, x1 = 0.4637	0.834	–
323.15 K, x1 = 0.605	0.841	9.9
323.15 K, x1 = 0.709	0.784	7.1
323.15 K, x1 = 0.8063	0.648	5
323.15 K, x1 = 0.9128	0.363	3.2

NCCO + CCCC[n+]1ccn(C)c1.F[P-](F)(F)(F)(F)F
x1 = 1
Conditions	electrical conductivity [S/m]	viscosity [mPa·s]
298.15 K	0.0023	18.6
303.15 K	0.0027	15
308.15 K	0.0032	11.9
313.15 K	0.0036	9.9
323.15 K	0.0069	7

CCCC[n+]1ccn(C)c1.F[P-](F)(F)(F)(F)F + CN(C)CCO
x2 = 0
Conditions	electrical conductivity [S/m]	viscosity [mPa·s]
288.15 K	0.105	350
293.15 K	0.142	250
298.15 K	0.185	182
303.15 K	0.24	136
308.15 K	0.309	102
313.15 K	0.384	79
318.15 K	0.421	62
323.15 K	0.504	48

CCCC[n+]1ccn(C)c1.F[P-](F)(F)(F)(F)F + NCCO
Conditions	electrical conductivity [S/m]	viscosity [mPa·s]
288.15 K, x2 = 0	0.105	350
288.15 K, x2 = 0.1185	0.124	220
288.15 K, x2 = 0.2113	0.144	172
288.15 K, x2 = 0.3052	0.165	141
288.15 K, x2 = 0.387	0.177	–
288.15 K, x2 = 0.4282	0.178	107
288.15 K, x2 = 0.4761	0.186	–
288.15 K, x2 = 0.4918	0.186	93
288.15 K, x2 = 0.5352	0.194	–
288.15 K, x2 = 0.5871	0.2	–
288.15 K, x2 = 0.6161	0.197	70
288.15 K, x2 = 0.6533	0.198	–
288.15 K, x2 = 0.6984	0.194	58
288.15 K, x2 = 0.9592	0.0794	–
293.15 K, x2 = 0	0.142	250
293.15 K, x2 = 0.1185	0.167	159
293.15 K, x2 = 0.2113	0.194	125
293.15 K, x2 = 0.4282	0.239	78
293.15 K, x2 = 0.4761	0.251	–
293.15 K, x2 = 0.4918	0.25	68
293.15 K, x2 = 0.6161	0.262	52
293.15 K, x2 = 0.6533	0.264	–
293.15 K, x2 = 0.6984	0.259	44
293.15 K, x2 = 0.8022	0.243	34
293.15 K, x2 = 0.9028	0.178	27
298.15 K, x2 = 0.1185	0.221	117
298.15 K, x2 = 0.387	0.309	–
298.15 K, x2 = 0.4282	0.312	59
298.15 K, x2 = 0.4761	0.329	–
298.15 K, x2 = 0.4918	0.325	52
298.15 K, x2 = 0.5871	0.347	–
298.15 K, x2 = 0.6161	0.34	39
298.15 K, x2 = 0.6533	0.346	–
298.15 K, x2 = 0.6984	0.34	33
298.15 K, x2 = 0.9028	0.226	21.3
298.15 K, x2 = 0.9592	0.131	–
303.15 K, x2 = 0	0.24	136
303.15 K, x2 = 0.1185	0.286	87
303.15 K, x2 = 0.2113	0.33	70
303.15 K, x2 = 0.3052	0.378	58
303.15 K, x2 = 0.387	0.397	–
303.15 K, x2 = 0.4282	0.4	45
303.15 K, x2 = 0.4761	0.424	–
303.15 K, x2 = 0.4918	0.415	39
303.15 K, x2 = 0.5871	0.445	–
303.15 K, x2 = 0.6161	0.432	30
303.15 K, x2 = 0.6533	0.441	–
303.15 K, x2 = 0.8022	0.397	20.8
303.15 K, x2 = 0.9028	0.283	16.9
303.15 K, x2 = 0.9592	0.164	–
308.15 K, x2 = 0	0.309	102
308.15 K, x2 = 0.1185	0.366	67
308.15 K, x2 = 0.2113	0.422	55
308.15 K, x2 = 0.3052	0.486	44
308.15 K, x2 = 0.4918	0.529	30
308.15 K, x2 = 0.5352	0.551	–
308.15 K, x2 = 0.5871	0.565	–
308.15 K, x2 = 0.6161	0.55	23.6
308.15 K, x2 = 0.6533	0.561	–
308.15 K, x2 = 0.6984	0.552	20.2
308.15 K, x2 = 0.8022	0.495	16.3
308.15 K, x2 = 0.9028	0.351	13.5
308.15 K, x2 = 0.9592	0.204	–
313.15 K, x2 = 0	0.384	79
313.15 K, x2 = 0.1185	0.455	53
313.15 K, x2 = 0.2113	0.524	42
313.15 K, x2 = 0.387	0.627	–
313.15 K, x2 = 0.4282	0.635	27
313.15 K, x2 = 0.4918	0.665	24.4
313.15 K, x2 = 0.5871	0.698	–
313.15 K, x2 = 0.6161	0.676	18.8
313.15 K, x2 = 0.6533	0.693	–
313.15 K, x2 = 0.6984	0.675	16.3
313.15 K, x2 = 0.8022	0.607	13.1
313.15 K, x2 = 0.9028	0.426	11
318.15 K, x2 = 0	0.421	62
318.15 K, x2 = 0.1185	0.558	42
318.15 K, x2 = 0.2113	0.641	34
318.15 K, x2 = 0.387	0.766	–
318.15 K, x2 = 0.4761	0.813	–
318.15 K, x2 = 0.5352	0.825	–
318.15 K, x2 = 0.5871	0.846	–
318.15 K, x2 = 0.6161	0.82	15.3
318.15 K, x2 = 0.6533	0.843	–
318.15 K, x2 = 0.6984	0.821	12.8
318.15 K, x2 = 0.8022	0.731	10.8
318.15 K, x2 = 0.9028	0.526	9.1
318.15 K, x2 = 0.9592	0.3	–
323.15 K, x2 = 0.1185	0.665	35
323.15 K, x2 = 0.2113	0.76	28
323.15 K, x2 = 0.387	0.915	–
323.15 K, x2 = 0.4282	0.918	18.3
323.15 K, x2 = 0.4918	0.945	16.1
323.15 K, x2 = 0.5871	1	–
323.15 K, x2 = 0.6161	0.971	12.8
323.15 K, x2 = 0.6533	0.999	–
323.15 K, x2 = 0.6984	0.972	11.1
323.15 K, x2 = 0.8022	0.861	9.1
323.15 K, x2 = 0.9028	0.619	7.7
323.15 K, x2 = 0.9592	0.351	–
